Activity calls are given as the source filed them.
Assays:
[1] = biological target: Adenosine receptor A2a (Homo sapiens, UniProt P29274)
Description: Binding affinity at human adenosine A2A receptor

[2] = system: Mus musculus; assay: Reversal of haloperidol-induced hypolocomotion in mouse at 30 mg/kg, ip; assay type: functional, organism-based; design: dose 30 mg/kg
[3] = system: Mus musculus; assay: Reversal of haloperidol-induced hypolocomotion in mouse at 30 mg/kg, po; assay type: functional, organism-based; design: dose 30 mg/kg
[4] = system: Mus musculus; assay: Reversal of haloperidol-induced hypolocomotion in po dosed mouse; assay type: functional; settings: read-out: MED
[5] = system: Mus musculus; assay: Reversal of haloperidol-induced hypolocomotion in mouse at 10 mg/kg, po; assay type: functional, organism-based; design: dose 10 mg/kg
[6] = system: Mus musculus; assay: Reversal of haloperidol-induced hypolocomotion in ip dosed mouse; assay type: functional; settings: read-out: MED
[7] = system: Mus musculus; assay: Reversal of haloperidol-induced hypolocomotion in mouse at 1 mg/kg, po; assay type: functional, organism-based; design: dose 1 mg/kg
[8] = system: Mus musculus; assay: Reversal of haloperidol-induced hypolocomotion in mouse at 10 mg/kg, ip; assay type: functional, organism-based; design: dose 10 mg/kg

Adenosine receptor A2a, sequence (P29274 whole entry): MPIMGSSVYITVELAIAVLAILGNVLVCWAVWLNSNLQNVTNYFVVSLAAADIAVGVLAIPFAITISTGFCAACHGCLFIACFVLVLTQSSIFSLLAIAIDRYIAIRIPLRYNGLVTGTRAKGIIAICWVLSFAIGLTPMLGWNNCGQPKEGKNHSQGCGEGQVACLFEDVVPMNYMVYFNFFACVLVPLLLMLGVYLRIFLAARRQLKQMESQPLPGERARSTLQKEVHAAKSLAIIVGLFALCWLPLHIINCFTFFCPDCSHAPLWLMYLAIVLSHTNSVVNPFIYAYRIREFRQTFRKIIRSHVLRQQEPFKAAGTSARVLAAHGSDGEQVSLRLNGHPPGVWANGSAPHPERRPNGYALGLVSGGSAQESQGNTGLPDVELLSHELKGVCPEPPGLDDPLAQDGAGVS

Row | Structure (SMILES) | Ki [1] | Activity [2] | other results
1 | Nc1nc(-c2ncc[nH]2)c2cnn(Cc3ccccc3F)c2n1 | 2090 nM | – | –
2 | Nc1nc(-c2ccco2)c2ncn(C(=O)NCCc3ccccc3)c2n1 | – | Active | –
3 | Nc1nc(-c2ccco2)c2ncn(C(=O)NCc3ccccc3)c2n1 | – | Active | –
4 | Cc1ccc(CNC(=O)n2cnc3c(-c4ccco4)nc(N)nc32)cc1 | – | Active | –
5 | Cn1ccnc1-c1nc(N)nc2c1cnn2Cc1ccccc1F | 1620 nM | inactive | –
6 | Nc1nc(-c2ccco2)c2cc[nH]c2n1 | 242 nM | Active | –
7 | Nc1nc(-c2ccco2)c2cnn(Cc3ccco3)c2n1 | 36 nM | Active | –
8 | Nc1nc(-c2ccco2)c2ncn(Cc3ccccc3F)c2n1 | 5 nM | Active | –
9 | Nc1nc(-c2ccco2)c2cn[nH]c2n1 | 48 nM | Active | –
10 | CN(C)c1nc(-c2ccco2)c2cnn(CCc3ccccc3)c2n1 | 1890 nM | – | –
11 | Nc1nc(-c2ccco2)c2cnn(Cc3cccc(Cl)c3)c2n1 | – | Active | –
12 | Nc1nc(-c2ccco2)c2ncn(Cc3ccc([N+](=O)[O-])cc3)c2n1 | 372 nM | – | –
13 | Nc1nc(-c2ccco2)c2ncn(C(=O)NCc3ccco3)c2n1 | – | Active | Activity [3]: Active; minimal effective dose [4]: 10 mg/kg; Activity [5]: Active; minimal effective dose [6]: < 30 mg/kg
14 | Nc1nc(-c2ccco2)c2cnn(C(=O)NCc3ccccc3)c2n1 | 1 nM | Active | –
15 | Nc1nc(-c2cccs2)c2cnn(Cc3ccccc3F)c2n1 | 9 nM | – | –
16 | Nc1nc(-c2ccco2)c2cnn(Cc3cccc(C(=O)O)c3)c2n1 | 1320 nM | inactive | –
17 | Nc1nc(-c2ccco2)c2ncn(Cc3ccc(C(F)(F)F)cc3)c2n1 | – | Active | –
18 | Nc1nc(-c2ccco2)c2ncn(Cc3cccc(Cl)c3)c2n1 | 8 nM | inactive | –
19 | Cc1cccc(CNC(=O)n2cnc3c(-c4ccco4)nc(N)nc32)c1 | – | Active | Activity [3]: Active; minimal effective dose [4]: 30 mg/kg; minimal effective dose [6]: 1 mg/kg
20 | Cc1cccc(Cn2cnc3c(-c4ccco4)nc(N)nc32)c1 | 6 nM | Active | –
21 | CSc1nc(-c2ccco2)c2ncn(C(=O)NCc3ccccc3)c2n1 | 13 nM | inactive | –
22 | Nc1nc(-c2ccco2)c2cnn(Cc3cccc([N+](=O)[O-])c3)c2n1 | – | Active | –

Row | Structure (SMILES) | Ki [1] | Activity [2] | other results
23 | Nc1nc(-c2ccco2)c2ncn(C(=O)NCc3cccs3)c2n1 | – | Active | Activity [3]: Active; minimal effective dose [4]: 30 mg/kg; minimal effective dose [6]: < 30 mg/kg
24 | Nc1nc(-c2ccco2)c2cnn(CC3CCCCC3)c2n1 | 45 nM | Active | –
25 | Nc1nc(-c2ccco2)c2cnn(Cc3c(F)cccc3F)c2n1 | – | Active | –
26 | Nc1cccc(Cn2ncc3c(-c4ccco4)nc(N)nc32)c1 | – | Active | –
27 | Nc1nc(-c2ccco2)c2cnn(Cc3ccccc3Cl)c2n1 | – | inactive | –
28 | Nc1nc(-c2cccs2)c2ncn(C(=O)NCc3ccccc3)c2n1 | 13 nM | inactive | –
29 | Nc1nc(-c2ccco2)c2cnn(Cc3ccc(C(F)(F)F)cc3)c2n1 | – | inactive | –
30 | Nc1nc(-c2ccco2)c2ncn(C(=O)Nc3ccccc3)c2n1 | 206 nM | Active | –
31 | COC(=O)c1cccc(Cn2cnc3c(-c4ccco4)nc(N)nc32)c1 | 45 nM | inactive | –
32 | Nc1nc(-c2cncs2)c2ncn(C(=O)NCc3ccccc3)c2n1 | 56 nM | Active | –
33 | CN(C)c1nc(-c2ccco2)c2ncn(C(=O)NCc3ccccc3)c2n1 | 23 nM | inactive | –
34 | Nc1nc(-c2ccco2)c2ncn(C(=O)NCc3ccccc3Cl)c2n1 | – | Active | –
35 | C[C@H](NC(=O)n1cnc2c(-c3ccco3)nc(N)nc21)c1ccccc1 | – | Active | –
36 | Nc1nc(-c2ccco2)c2nc[nH]c2n1 | 261 nM | Active | Activity [3]: inactive; minimal effective dose [4]: 1 mg/kg; Activity [7]: Active; Activity [8]: Active; minimal effective dose [6]: 10 mg/kg
37 | Nc1cccc(Cn2cnc3c(-c4ccco4)nc(N)nc32)c1 | 23 nM | Active | Activity [3]: Active; minimal effective dose [4]: 30 mg/kg; minimal effective dose [6]: 10 mg/kg
38 | Nc1nc(-c2ccco2)c2cnn(Cc3ccccc3F)c2n1 | 4 nM | Active | –
39 | Nc1nc(-c2ccccc2)c2ncn(C(=O)NCc3ccccc3)c2n1 | 17 nM | Active | –
40 | Nc1nc(-c2ccco2)c2cnn(Cc3ccccc3[N+](=O)[O-])c2n1 | 26 nM | inactive | –
41 | Nc1nc(-c2ccco2)c2cnn(Cc3cccnc3)c2n1 | 28 nM | Active | –
42 | CS(=O)(=O)c1ccc(Cn2cnc3c(-c4ccco4)nc(N)nc32)cc1 | 779 nM | – | –
43 | Cc1nc(-c2ccco2)c2ncn(C(=O)NCc3ccccc3)c2n1 | 102 nM | – | –
44 | CS(=O)(=O)c1ccc(Cn2ncc3c(-c4ccco4)nc(N)nc32)cc1 | 340 nM | inactive | –

Row | Structure (SMILES) | Ki [1] | Activity [2] | other results
45 | OCCNc1nc(-c2ccco2)c2cnn(CCc3ccccc3)c2n1 | 135 nM | inactive | –
46 | Nc1nc(-c2ccco2)c2cnn(Cc3ccc([N+](=O)[O-])cc3)c2n1 | 119 nM | inactive | –
47 | Nc1nc(-c2ccco2)c2cnn(Cc3ccccc3N)c2n1 | – | Active | –
48 | Nc1nc(-c2ccco2)c2ncn(Cc3cccc([N+](=O)[O-])c3)c2n1 | 85 nM | inactive | –
49 | Nc1nc(-c2ccco2)c2ncn(Cc3cccc(C(=O)O)c3)c2n1 | 4100 nM | – | –
50 | COc1cccc(Cn2ncc3c(-c4ccco4)nc(N)nc32)c1 | – | Active | –
51 | Nc1nc(-c2ccccn2)c2cnn(Cc3ccccc3F)c2n1 | – | Active | –
52 | Cc1cccc(Cn2ncc3c(-c4ccco4)nc(N)nc32)c1 | 3 nM | Active | –
53 | Nc1nc(-c2nccs2)c2cnn(Cc3ccccc3F)c2n1 | 17 nM | inactive | –
54 | Nc1nc(-c2ccco2)c2ncn(Cc3c(F)cccc3F)c2n1 | – | Active | –
55 | COc1cccc(Cn2cnc3c(-c4ccco4)nc(N)nc32)c1 | – | Active | –
56 | Nc1nc(-c2ccco2)c2cnn(CCCc3ccccc3)c2n1 | 4 nM | Active | –
57 | Nc1nc(-c2ccco2)c2cnn(Cc3ccccc3)c2n1 | 3 nM | Active | –
58 | C[C@@H](NC(=O)n1cnc2c(-c3ccco3)nc(N)nc21)c1ccccc1 | 26 nM | inactive | –
59 | Nc1nc(-c2ccco2)c2cnn(CCc3ccccc3)c2n1 | 110 nM | inactive | –
60 | Nc1nc(-n2ccnn2)c2cnn(Cc3ccccc3F)c2n1 | 71 nM | Active | –
61 | Nc1nc(-c2cc[nH]n2)c2cnn(Cc3ccccc3F)c2n1 | – | Active | –
62 | Nc1nc(-c2ccco2)c2ncn(C(=O)NCc3ccc(F)cc3)c2n1 | – | Active | –
63 | COC(=O)c1cccc(Cn2ncc3c(-c4ccco4)nc(N)nc32)c1 | 4 nM | Active | –
64 | Nc1nc(-c2ccco2)c2ncn(Cc3ccccc3)c2n1 | – | Active | –

— ChEMBL document CHEMBL1145614, “Antagonists of the human adenosine A2A receptor. Part 3: Design and synthesis of pyrazolo[3,4-d]pyrimidines, pyrrolo[2,3-d]pyrimidines and 6-arylpurines” (Bioorg Med Chem Lett, 2008)
